Measurements reported in article PMC2744590 (Biochimica et biophysica acta, 2009).
Read-outs that look alike come from different tables or passages of the source.

Experiments:
[1] = target: nicotinic (α4)2(β2)3 receptors; conditions: cited from earlier work
α4β2 and α4β4 nAChRs = conditions: range over both agonists and both receptors; cited from earlier work
α4 with β2F119Q nAChR = α4 with β2F119Q nAChR (Homo sapiens, UniProt P17787+P43681, F144Q); assay: Two-electrode voltage clamp of receptors expressed in Xenopus oocytes; format: cell-based
Sequence of α4 with β2F119Q nAChR (P43681 29-627, stated change not applied): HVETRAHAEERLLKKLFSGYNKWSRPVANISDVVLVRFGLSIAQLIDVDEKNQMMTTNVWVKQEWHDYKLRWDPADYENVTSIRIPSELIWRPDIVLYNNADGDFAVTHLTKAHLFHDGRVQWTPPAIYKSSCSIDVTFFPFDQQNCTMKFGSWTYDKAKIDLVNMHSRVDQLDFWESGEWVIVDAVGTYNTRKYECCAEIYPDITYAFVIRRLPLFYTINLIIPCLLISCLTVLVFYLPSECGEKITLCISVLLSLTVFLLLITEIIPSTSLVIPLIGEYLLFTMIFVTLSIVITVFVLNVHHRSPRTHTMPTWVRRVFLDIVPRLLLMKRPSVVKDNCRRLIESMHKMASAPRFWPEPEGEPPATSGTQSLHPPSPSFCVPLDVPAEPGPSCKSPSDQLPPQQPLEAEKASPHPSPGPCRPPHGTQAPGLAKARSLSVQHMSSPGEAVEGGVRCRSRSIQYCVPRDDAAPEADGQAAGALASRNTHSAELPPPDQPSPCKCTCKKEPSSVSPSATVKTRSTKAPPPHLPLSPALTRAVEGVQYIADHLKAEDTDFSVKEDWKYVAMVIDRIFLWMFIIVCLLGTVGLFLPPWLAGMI
Sequence of α4 with β2F119Q nAChR (P17787 26-502 F144Q): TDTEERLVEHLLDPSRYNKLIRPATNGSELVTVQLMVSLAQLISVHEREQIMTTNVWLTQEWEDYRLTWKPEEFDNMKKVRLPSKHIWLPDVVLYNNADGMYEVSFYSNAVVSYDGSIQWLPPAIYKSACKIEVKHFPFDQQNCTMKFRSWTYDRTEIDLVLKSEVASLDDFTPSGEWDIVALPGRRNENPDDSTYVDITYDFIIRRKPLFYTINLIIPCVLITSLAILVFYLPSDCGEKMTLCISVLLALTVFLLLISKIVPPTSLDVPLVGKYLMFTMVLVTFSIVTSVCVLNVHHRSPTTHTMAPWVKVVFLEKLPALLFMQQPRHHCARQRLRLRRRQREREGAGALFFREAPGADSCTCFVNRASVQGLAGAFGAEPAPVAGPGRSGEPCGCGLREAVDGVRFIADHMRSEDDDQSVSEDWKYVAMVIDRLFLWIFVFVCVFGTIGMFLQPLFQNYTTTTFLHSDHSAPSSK

[2] = target: α4 with wild-type β2 nAChR, (α4)2(β2)3 (Homo sapiens, UniProt P17787+P43681); assay: as above; format: cell-based
Sequence of α4 with wild-type β2 nAChR, (α4)2(β2)3 (P43681 29-627 limits assumed): as the sequence (P43681 29-627, stated change not applied) above
Sequence of α4 with wild-type β2 nAChR, (α4)2(β2)3 (P17787 26-502): as the sequence (P17787 26-502 F144Q) above, with Q119F counted along it

α4 with β2S113R nAChR = α4 with β2S113R nAChR (Homo sapiens, UniProt P17787+P43681, S138R); assay: as above; format: cell-based
Sequence of α4 with β2S113R nAChR (P43681 29-627 limits assumed): as the sequence (P43681 29-627, stated change not applied) above
Sequence of α4 with β2S113R nAChR (P17787 26-502 S138R): as the sequence (P17787 26-502 F144Q) above, with S113R, Q119F counted along it

α4β4 receptor = conditions: read-out: IC50 inhibiting binding of [3H]epibatidine; cited from earlier work
human α4β2 nAChRs = human α4β2 nAChRs (Homo sapiens, UniProt P17787+P43681); assay: Photoaffinity labeling; format: binding; conditions: ∼1 nM probe, 254 nm, α4 or β2 subunit
Sequence of human α4β2 nAChRs (P17787 26-502): as the sequence (P17787 26-502 F144Q) above, with Q119F counted along it
Sequence of human α4β2 nAChRs (P43681 29-627): as the sequence (P43681 29-627, stated change not applied) above

rat α4β4 nAChRs = rat α4β4 nAChRs (Rattus norvegicus, UniProt P09483+P12392); format: binding
Sequence of rat α4β4 nAChRs (P09483 31-630): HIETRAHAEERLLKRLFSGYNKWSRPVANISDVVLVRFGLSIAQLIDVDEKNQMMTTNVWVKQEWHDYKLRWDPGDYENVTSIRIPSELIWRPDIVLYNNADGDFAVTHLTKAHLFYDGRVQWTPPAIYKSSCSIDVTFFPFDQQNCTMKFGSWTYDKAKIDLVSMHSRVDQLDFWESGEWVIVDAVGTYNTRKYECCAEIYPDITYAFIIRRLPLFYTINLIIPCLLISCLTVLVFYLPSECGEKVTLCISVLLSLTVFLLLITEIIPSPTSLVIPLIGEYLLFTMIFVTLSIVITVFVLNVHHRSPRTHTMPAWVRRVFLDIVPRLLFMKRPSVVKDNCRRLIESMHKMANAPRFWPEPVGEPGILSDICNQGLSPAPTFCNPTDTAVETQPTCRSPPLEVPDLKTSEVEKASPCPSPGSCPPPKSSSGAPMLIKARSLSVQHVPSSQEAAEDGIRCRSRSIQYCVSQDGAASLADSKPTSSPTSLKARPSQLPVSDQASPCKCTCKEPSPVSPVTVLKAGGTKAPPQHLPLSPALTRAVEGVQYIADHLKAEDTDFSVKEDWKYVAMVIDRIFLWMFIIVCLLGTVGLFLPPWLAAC
Sequence of rat α4β4 nAChRs (P12392 25-495): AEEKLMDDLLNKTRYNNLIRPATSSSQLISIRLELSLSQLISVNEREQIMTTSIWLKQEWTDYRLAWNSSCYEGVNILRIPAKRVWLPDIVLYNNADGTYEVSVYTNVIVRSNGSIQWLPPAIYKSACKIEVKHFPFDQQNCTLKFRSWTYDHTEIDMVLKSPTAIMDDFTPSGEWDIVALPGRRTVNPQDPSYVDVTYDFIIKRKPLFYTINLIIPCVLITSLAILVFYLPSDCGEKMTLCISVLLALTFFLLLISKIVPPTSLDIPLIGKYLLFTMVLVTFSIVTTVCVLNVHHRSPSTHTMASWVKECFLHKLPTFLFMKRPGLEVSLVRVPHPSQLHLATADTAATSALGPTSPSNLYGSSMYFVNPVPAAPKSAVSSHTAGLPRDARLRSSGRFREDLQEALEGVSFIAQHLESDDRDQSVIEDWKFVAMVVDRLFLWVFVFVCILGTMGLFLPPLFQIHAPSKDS

[3] = target: α4β2F119Q, α4β2S113R and wild-type (WT) hα4β2 receptors; design: species or system human; conditions: read-out: [3H]epibatidine binding affinities; range over α4β2F119Q, α4β2S113R and WT hα4β2 transiently expressed in HEK 293 cells
α4β2F119Q receptors = α4β2F119Q receptors (Homo sapiens, UniProt P17787+P43681, F144Q); format: binding; conditions: preincubation with 100 nM epibatidine
Sequence of α4β2F119Q receptors (P43681 29-627, stated change not applied): as the sequence (P43681 29-627, stated change not applied) above
Sequence of α4β2F119Q receptors (P17787 26-502 F144Q): as the sequence (P17787 26-502 F144Q) above

[4] = read-out: EC50 of activation, 5 oocytes

Cl.Cl.Ic1cncc(OC[C@@H]2CCN2)c1 [5I-A-85380, 5-iodo-A-85380 dihydrochloride]
EC50 [1]: ~10 nM
maximal response ([1]; compared with ACh): larger than that for ACh itself
binding affinity (α4β2 and α4β4 nAChRs): 0.062 to 24 nM
EC50 (α4 with β2F119Q nAChR; [4]): 338 ± 77 nM
EC50 [2, 4]: 23 ± 2 nM
EC50 (α4 with β2S113R nAChR; read-out: EC50 of activation, 7 oocytes): 30 ± 7 nM
IC50 (α4β4 receptor): 24 nM

[125I]c1cncc(OCC2CCN2)c1 (stereo not shown) [5[^125I]A-85380]
pattern of photoincorporation (human α4β2 nAChRs): very little if any photoincorporation
pattern of photoincorporation (rat α4β4 nAChRs; 1 nM probe, 254 nm, 30 or 15 min): incorporated selectively into the β4 subunit

CC(=O)OCC[N+](C)(C)C [ACh, Acetylcholine chloride]
actual amplitude of the ACh response (α4 with β2F119Q nAChR; 1 mM ACh, single oocyte trace): -0.03 μA
actual amplitude of the ACh response ([2]; 1 mM ACh, single oocyte trace): -0.8 μA
actual amplitude of the ACh response (α4 with β2S113R nAChR; 1 mM ACh, single oocyte trace): -3.3 μA

Clc1ccc(C2CC3CCC2N3)cn1 (stereo not shown) [[^3H]epibatidine]
Kd [3]: 0.4 to 0.7 nM

Clc1ccc(C2CC3CCC2N3)cn1 (stereo not shown) [epibatidine]
effect on labeling by radiolabeled agonist (rat α4β4 nAChRs): complete elimination of labeling
effect on [125I]epibatidine labeling in the β2F119Q subunit (α4β2F119Q receptors): completely eliminated labeling

Ic1ccc(C2CC3CCC2N3)cn1 (stereo not shown) [iodoepibatidine]
binding affinity (α4β2 and α4β4 nAChRs): 0.062 to 24 nM

CN1CCC[C@H]1c1cccnc1 [nicotine]
effect on labeling by radiolabeled agonist (rat α4β4 nAChRs; 15 min preincubation with 100 μM nicotine or 100 nM epibatidine): complete elimination of labeling
reduction of [125I]epibatidine labeling of β4 subunit and β4′ fragment (rat α4β4 nAChRs; co-application of 100 μM nicotine, γ-counting of excised gel bands): > 50%

[^125I]epibatidine
pattern of photoincorporation (human α4β2 nAChRs): very little if any photoincorporation
